Literature values as cited in US20130144636A1, “Method and System for Predicting Adverse Drug Reactions Using BioAssay Data” (The Board of Trustees of the Leland Stanford, Junior, …, priority 2011, published 2013).
Where two headings read alike, the source gives them in different places.

How the values were obtained:
murine bone marrow = conditions: in vivo murine bone marrow micronucleus tests
[1] = in vitro mutagenesis tests such as the Ames test
[2] = FDA drug label, DRUGDEX or literature case report
[3] = biological target: glutathione-S-transferase μ (GSTP1) (Homo sapiens, UniProt P09211)
interleukin-1 (IL-1) = conditions: in vitro

glutathione-S-transferase μ (GSTP1), sequence (P09211 2-210 limits assumed): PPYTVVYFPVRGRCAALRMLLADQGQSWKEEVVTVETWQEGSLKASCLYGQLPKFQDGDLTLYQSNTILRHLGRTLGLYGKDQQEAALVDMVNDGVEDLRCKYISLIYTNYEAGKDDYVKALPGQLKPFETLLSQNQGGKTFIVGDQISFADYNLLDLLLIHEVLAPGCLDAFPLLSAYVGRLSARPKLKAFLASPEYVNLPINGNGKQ

SMILES: Oc1ccc(O)cc1 [hydroquinone]
- genotoxic carcinogenic activity (murine bone marrow): genotoxic carcinogenic activity
- genotoxic carcinogenic activity (murine bone marrow; listed as Hydroquinone): carcinogenic
- mutagenic activity in vitro [1]: but not in in vitro mutagenesis tests
- mutagenic activity in vitro ([1]; listed as Hydroquinone): inactive

SMILES: Oc1c(I)cc(Cl)c2cccnc12 [clioquinol]
- known adverse drug reaction in humans [2]: associated with subacute myelo-optic neuropathy (SMON) syndrome

SMILES: CC(=O)Oc1ccccc1C(=O)Nc1ncc([N+](=O)[O-])s1 [nitazoxanide]
- inhibition of enzymatic activity [3]: inhibit the enzymatic activity

SMILES: CC(=O)Oc1cccc2c1C(=O)c1c(OC(C)=O)cc(C(=O)O)cc1C2=O [diacerein]
- inhibition of IL-1 synthesis (interleukin-1 (IL-1)): directly inhibits the synthesis
